ChEMBL document CHEMBL2163297, “Discovery of novel PI3-kinase δ specific inhibitors for the treatment of rheumatoid arthritis: taming CYP3A4 time-dependent inhibition” (J Med Chem, 2012)
pIC50, pKi: −log10 of the molar value.

Columns and labels:
[1] = target: T1, Phosphatidylinositol 4,5-bisphosphate 3-kinase catalytic subunit delta isoform (Homo sapiens, UniProt O00329); test: Inhibition of human PI3Kdelta-mediated AKT phosphorylation at S473 in Ri-1 cells after 30 mins by electrochemiluminescence assay in presence of human serum albumin and alpha1 acid glycoprotein; assay type: cell-based
T1 sequence (O00329 whole entry): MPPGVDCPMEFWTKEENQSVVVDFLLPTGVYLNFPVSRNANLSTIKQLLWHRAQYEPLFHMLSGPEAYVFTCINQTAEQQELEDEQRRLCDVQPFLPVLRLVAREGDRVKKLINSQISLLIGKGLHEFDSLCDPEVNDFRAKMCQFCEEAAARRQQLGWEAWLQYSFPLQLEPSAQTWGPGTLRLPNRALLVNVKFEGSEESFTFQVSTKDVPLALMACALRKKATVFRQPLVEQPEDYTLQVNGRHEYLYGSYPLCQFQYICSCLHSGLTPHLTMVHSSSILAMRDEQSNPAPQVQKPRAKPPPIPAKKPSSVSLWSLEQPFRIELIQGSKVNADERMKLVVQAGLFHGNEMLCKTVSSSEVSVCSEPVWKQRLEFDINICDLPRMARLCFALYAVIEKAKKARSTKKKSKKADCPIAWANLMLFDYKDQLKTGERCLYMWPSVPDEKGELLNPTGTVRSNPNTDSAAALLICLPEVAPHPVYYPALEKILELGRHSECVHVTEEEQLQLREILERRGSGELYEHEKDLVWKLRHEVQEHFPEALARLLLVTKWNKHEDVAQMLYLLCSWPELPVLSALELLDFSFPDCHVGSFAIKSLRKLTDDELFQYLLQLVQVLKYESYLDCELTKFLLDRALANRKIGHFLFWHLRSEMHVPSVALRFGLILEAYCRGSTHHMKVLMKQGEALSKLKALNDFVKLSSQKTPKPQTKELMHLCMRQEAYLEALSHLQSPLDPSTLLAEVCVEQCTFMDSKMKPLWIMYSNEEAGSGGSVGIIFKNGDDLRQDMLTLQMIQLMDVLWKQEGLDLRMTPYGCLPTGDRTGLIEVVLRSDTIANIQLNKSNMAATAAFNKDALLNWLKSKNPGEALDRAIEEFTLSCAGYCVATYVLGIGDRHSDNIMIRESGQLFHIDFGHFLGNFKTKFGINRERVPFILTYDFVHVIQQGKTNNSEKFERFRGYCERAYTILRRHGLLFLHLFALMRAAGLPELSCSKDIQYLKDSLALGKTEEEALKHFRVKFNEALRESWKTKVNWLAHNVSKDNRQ

[2] = Selectivity ratio of IC50 for PI3Kalpha to IC50 for PI3Kdelta
[3] = target: T1, Phosphatidylinositol 4,5-bisphosphate 3-kinase catalytic subunit delta isoform
Description: Binding affinity to PI3Kdelta after 30 mins by competitive fluorescence polarization assay

[4] = Oral bioavailability in […] Wistar rat at 2 mg/kg; assay type: ADME, organism-based; conditions: in vivo
Liver microsomes [5] = test: Metabolic stability in rat liver microsomes; assay type: ADME, Microsome
[6] = Volume of distribution at steady state in […] Wistar rat at 0.5 mg/kg, iv and 2 mg/kg, po; assay type: ADME, organism-based; conditions: in vivo, read-out: Vdss
[7] = Clearance in […] Wistar rat at 0.5 mg/kg, iv and 2 mg/kg, po; assay type: ADME, organism-based; conditions: in vivo
Liver microsomes [8] = test: Metabolic stability in human liver microsomes; assay type: ADME, Microsome
[9] = Selectivity ratio of IC50 for PI3Kbeta to IC50 for PI3Kdelta
[10] = Selectivity ratio of IC50 for PI3Kgamma to IC50 for PI3Kdelta
Cytochrome P450 3A4 [11] = target: T2, Cytochrome P450 3A4 (Homo sapiens, UniProt P08684); test: (§1) Time dependent inhibition of CYP3A4 in human liver microsomes preincubated for 30 mins; assay type: ADME, Microsome
CYP3A4 = CYP3A4 (Homo sapiens, UniProt P08684); test: as §1; assay type: ADME, Microsome; conditions: human, liver microsomes
[12] = target: T3, Phosphatidylinositol 4,5-bisphosphate 3-kinase catalytic subunit delta isoform (Homo sapiens) (UniProt O00329); test: Ratio of IC50 for human PI3Kdelta-mediated AKT phosphorylation at S473 in Ri-1 cells to IC50 for PI3Kdelta; assay type: cell-based
T3 sequence (whole entry): T1 sequence (O00329 whole entry)

Cytochrome P450 3A4 [13] = target: T2, Cytochrome P450 3A4; test: Inhibition of CYP3A4 in human liver microsomes; assay type: ADME, Microsome; conditions: TDE = time-dependent effect

T2 sequence (P08684 whole entry): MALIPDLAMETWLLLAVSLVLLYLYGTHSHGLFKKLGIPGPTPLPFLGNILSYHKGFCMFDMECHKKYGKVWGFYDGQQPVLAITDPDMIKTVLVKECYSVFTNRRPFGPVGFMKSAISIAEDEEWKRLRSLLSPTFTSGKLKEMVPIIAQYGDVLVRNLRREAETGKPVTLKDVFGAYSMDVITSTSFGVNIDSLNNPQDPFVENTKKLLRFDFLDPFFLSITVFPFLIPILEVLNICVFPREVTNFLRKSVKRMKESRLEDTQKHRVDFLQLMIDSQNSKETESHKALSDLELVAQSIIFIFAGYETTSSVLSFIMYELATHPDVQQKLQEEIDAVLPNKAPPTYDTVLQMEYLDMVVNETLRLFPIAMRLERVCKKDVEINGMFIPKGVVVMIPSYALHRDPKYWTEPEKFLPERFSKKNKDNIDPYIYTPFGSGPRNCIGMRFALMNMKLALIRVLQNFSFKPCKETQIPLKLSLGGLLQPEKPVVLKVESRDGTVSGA
CYP3A4, sequence (P08684 whole entry, canonical isoform): as the sequence (P08684 whole entry) above

| SMILES | pIC50 [1] | Ratio IC50 [2] | pIC50 [3] | Ratio IC50 [9] | Ratio IC50 [10] | pIC50 (Cytochrome P450 3A4 [11]) | also measured |
| --- | --- | --- | --- | --- | --- | --- | --- |
| Cc1cccc(-c2nc(N3CCOCC3)c3sc(CN4CCC(N(C)C)CC4)cc3n2)c1 | 5.89 | 98 | 7.92 |  |  |  |  |
| Fc1ccc2[nH]ccc2c1-c1nc(N2CCOCC2)c2sc(CN3CCN4CCOC[C@H]4C3)cc2n1 |  | 42 | 8.05 | 69 | 806 | 5.15 | bioavailability [4]: 75.5%; Stability (Liver microsomes [5]): 72.5%; Vd [6]: 2.76 L/kg; clearance [7]: 25.2 mL/min/kg; Stability (Liver microsomes [8]): 68.7%; pKi (Cytochrome P450 3A4 [11]): 4.11; kinact at 30 min (CYP3A4): 0.0008 s⁻¹ |
| CCc1nc2ccccc2n1-c1nc(N2CCOCC2)c2sc(CN3CCC(C(C)(C)O)CC3)cc2n1 |  |  |  |  |  | < 5.00 |  |
| CC(C)(C(N)=O)N1CCN(Cc2cc3nc(-c4cc(F)cc5[nH]ccc45)nc(N4CCOCC4)c3s2)CC1 |  | 77 | 9.32 | 80 | 566 | 6.29 |  |
| CN(C)C1CCN(Cc2cc3nc(-c4cccc5c4CC(=O)N5)nc(N4CCOCC4)c3s2)CC1 | 5.47 | 8 | 7.39 |  |  |  |  |
| Cc1nc2ccccc2n1-c1nc(N2CCOCC2)c2sc(CN3CCC(N(C)C)CC3)cc2n1 | 6.43 | 29 | 8.57 | 252 | 233 | < 5.00 |  |
| Cc1nc2ccccc2n1-c1nc(N2CCOCC2)c2sc(CN3CCN(C(C)(C)C(N)=O)CC3)cc2n1 |  | 17 | 8.37 | 111 | 134 | < 5.00 |  |
| CN(C)C1CCN(Cc2cc3nc(-c4c(F)ccc5[nH]ccc45)nc(N4CCOCC4)c3s2)CC1 | 7.54 | 226 | 8.74 |  |  | 5.04 | Ratio IC50 [12]: 16 |
| CN(C)C1CCN(Cc2cc3nc(-n4cnc5ccccc54)nc(N4CCOCC4)c3s2)CC1 | 6.01 | 14 | 7.64 |  |  |  | Ratio IC50 [12]: 42 |
| CC(C)(C(N)=O)N1CCN(Cc2cc3nc(-c4cncc5[nH]ccc45)nc(N4CCOCC4)c3s2)CC1 |  | 41 | 9.17 | 40 | 243 | 5.49 |  |
| CC(C)(C(N)=O)N1CCN(Cc2cc3nc(-c4cccc5[nH]ccc45)nc(N4CCOCC4)c3s2)CC1 |  | 129 | 8.74 | 104 | 1440 |  | inhibition (INH) (Cytochrome P450 3A4 [13]): tde |
| CC(C)(C(N)=O)N1CCN(Cc2cc3nc(-c4nccc5[nH]ccc45)nc(N4CCOCC4)c3s2)CC1 |  | 86 | 8.46 | 46 | 2830 | < 5.00 |  |
| CC(C)(C(N)=O)N1CCN(Cc2cc3nc(-c4ccnc5[nH]ccc45)nc(N4CCOCC4)c3s2)CC1 |  | 30 | 8.64 | 103 | 81 | > 7.00 |  |
| CCc1nc2ccccc2n1-c1nc(N2CCOCC2)c2sc(CN3CCN(C4COC4)CC3(C)C)cc2n1 | 6.99 | 50 | 8.64 | 815 | 112 | < 5.00 |  |
| Cc1ncc2ccccc2c1-c1nc(N2CCOCC2)c2sc(CN3CCC(N(C)C)CC3)cc2n1 | 5.70 | 144 | 7.54 |  |  |  |  |
| CN(C)C1CCN(Cc2cc3nc(-n4ncc5ccccc54)nc(N4CCOCC4)c3s2)CC1 | 5.49 | 39 | 7.80 |  |  |  |  |
| CN(C)C1CCN(Cc2cc3nc(-c4c[nH]c5ccccc45)nc(N4CCOCC4)c3s2)CC1 |  | 88 | 8.25 |  |  |  |  |
| CCc1nc2ccccc2n1-c1nc(N2CCOCC2)c2sc(CN3CCN(S(C)(=O)=O)CC3)cc2n1 | 7.10 | 2 | 8.37 | 12 | 14 | < 5.00 |  |
| Cn1ccc2c(-c3nc(N4CCOCC4)c4sc(CN5CCN(C(C)(C)C(N)=O)CC5)cc4n3)cccc21 |  | 18 | 6.87 | 75 | 75 | < 5.00 |  |
| Cc1cc2c(-c3nc(N4CCOCC4)c4sc(CN5CCN(C(C)(C)C(N)=O)CC5)cc4n3)cccc2[nH]1 |  | 122 | 8.96 | 101 | 715 | > 7.00 |  |
| CN(C)C1CCN(Cc2cc3nc(-c4n[nH]c5ccccc45)nc(N4CCOCC4)c3s2)CC1 |  | 65 | 8.01 |  |  |  |  |
| CC(C)(C(N)=O)N1CCN(Cc2cc3nc(-c4c(F)cc(F)c5[nH]ccc45)nc(N4CCOCC4)c3s2)CC1 |  | 96 | 8.22 | 137 | 350 | 6.22 |  |
| CC(C)(C(N)=O)N1CCN(Cc2cc3nc(-c4cccc5[nH]ncc45)nc(N4CCOCC4)c3s2)CC1 |  | 9 | 8.51 | 54 | 153 |  |  |
| CN(C)C1CCN(Cc2cc3nc(-n4ccc5ccccc54)nc(N4CCOCC4)c3s2)CC1 | 6.38 | 54 | 8.00 |  |  |  |  |
| CS(=O)(=O)N1CCN(Cc2cc3nc(-c4cccc5[nH]ccc45)nc(N4CCOCC4)c3s2)CC1 |  | 22 | 8.77 | 25 | 268 |  | inhibition (INH) (Cytochrome P450 3A4 [13]): tde |
| CC(C)(C(N)=O)N1CCN(Cc2cc3nc(-c4cc(C#N)cc5[nH]ccc45)nc(N4CCOCC4)c3s2)CC1 |  | 208 | 8.49 | 275 | 691 | 5.92 |  |
| CN(C)C1CCN(Cc2cc3nc(-c4cccc5nccn45)nc(N4CCOCC4)c3s2)CC1 | 6.74 | 21 | 7.57 |  |  |  |  |
| CC(C)(C(N)=O)N1CCN(Cc2cc3nc(-c4c(F)ccc5[nH]ccc45)nc(N4CCOCC4)c3s2)CC1 |  | 194 | 8.52 | 102 | 1880 | 5.82 | bioavailability [4]: 75.2%; Stability (Liver microsomes [5]): 90.8%; Vd [6]: 2.38 L/kg; clearance [7]: 31.3 mL/min/kg; Stability (Liver microsomes [8]): 82.5%; pKi (Cytochrome P450 3A4 [11]): 5.18; kinact at 30 min (CYP3A4): 0.00123 s⁻¹ |
